According to patent publication US9889146B2, “Benzoxaborole compounds and uses thereof” (priority 2012, dated 2018):
In brackets after ≈: the same amount, converted by molar mass. Where two headings read alike, the source gives them in different places.

Key:
Format in all cases: cell-based
E. coli ATCC 25922 = assay: Spontaneous frequency of resistance; conditions: 24 h
Experimental: (§1) Spontaneous Resistance Frequency was determined in vitro for GSK2251052 and the resistance mutants in E. coli ATCC 25922, K. pneumoniae ATCC 13883, and P. aeruginosa ATCC 27853 strains were characterized. GSK2251052 was prepared as described in U.S. Pat. No. 7,816,344 (the entire contents of which are hereby incorporated by reference herein). LB broth, Mueller Hinton II broth (adjusted), and Difco noble agar were obtained from Becton Dickinson (Cockeysville, Md., USA). M9 minimal broth containing 1×M9 salt, 0.5 μg/ML thiamine, 1 mM MgSO4, 0.1 mM CaCl2, 2% glucose, was obtained from Teknova (Hollister, Calif., USA). Antibacterial agents ciprofloxacin, ceftazidime, chloramphenicol, gentamycin, kanamycin, polymixin B, tobramycin and trimethoprim, and amino acids were obtained from Sigma Chemicals (St. Louis, Mo., USA). Strains were obtained from ATCC (Manassas, Va., USA).
(§2) Selection of resistance to GSK2251052 was attempted by spreading various amounts of bacteria onto MHBII noble agar plates containing 4×MIC (minimum inhibitory concentration) or 10×MIC of GSK2251052. Colonies were counted after 24 hours and 48 hours incubation at 37° C. The resistance of these colonies was confirmed by their ability to grow on plates containing GSK2251052 at either 4× or 10×MIC. Frequency of resistance was determined by dividing the number of resistant mutants by the total number of cells plated as determined by plating dilutions of the overnight culture on LB plates.

K. pneumoniae ATCC 13883 = assay: Spontaneous frequency of resistance; conditions: 24 h
Experimental: as §1, §2

P. aeruginosa ATCC 27853 = assay: Spontaneous frequency of resistance; conditions: 24 h
Experimental: as §1, §2

[1] = tested on: E. coli ATCC 25922 wild type and mutants; assay: MIC, wild type and GSK2251052 resistant mutants; conditions: for MIC: Escherichia coli
Experimental: as §1
(§3) Susceptibility tests were performed following the recommendations for aerobic bacteria (M7-A7) from the Clinical and Laboratories Standards Institute (CLSI).
(§4) Laboratory generated mutants resistant to GSK2251052 contain mutations in the editing domain of LeuRS. Six to ten GSK2251052 resistant colonies of E. coli ATCC 25922, K. pneumoniae ATCC 13883 and P. aeruginosa ATCC 27853 were selected for further analysis and their MICs to GSK2251052 were determined (Table 4-7).

[2] = tested on: K. pneumoniae ATCC 13883 wild type and mutants; assay: MIC, wild type and GSK2251052 resistant mutants; conditions: for MIC: Klebsiella pneumoniae
Experimental: as §1, §3, §4

[3] = tested on: P. aeruginosa ATCC 27853 wild type and mutants; assay: MIC, wild type and GSK2251052 resistant mutants; conditions: for MIC: Pseudomonas aeruginosa
Experimental: as §1, §3, §4

[4] = tested on: E. coli ATCC 25922, K. pneumoniae ATCC 13883 and P. aeruginosa ATCC 27853; assay: MIC, three strains and their mutants summarised; conditions: MIC in E. coli, P. aeruginosa and K. pneumoniae mutants versus wild-type
Experimental: as §1, §3, §4
GSK2251052 resistant mutants were not cross-resistant to commercial antibiotics.

Enterobacteriaceae = assay: organism not typed; conditions: Enterobacteriaceae; for MIC90: 2029 isolates
E. coli (WT) = assay: microbe, parasite or virus in culture; conditions: E. coli (WT); for MIC90: 214 isolates
E. coli (ESBL) = assay: microbe, parasite or virus in culture; conditions: E. coli (ESBL); for MIC90: 27 isolates
Klebsiella spp. (WT) = assay: microbe, parasite or virus in culture; conditions: Klebsiella spp. (WT); for MIC90: 159 isolates
Klebsiella spp. (ESBL) = assay: microbe, parasite or virus in culture; conditions: Klebsiella spp. (ESBL); for MIC90: 71 isolates
Klebsiella spp. (KPC) = assay: microbe, parasite or virus in culture; conditions: Klebsiella spp. (KPC); for MIC90: 26 isolates
[5] = tested on: Enterobacter aerogenes (WT); assay: microbe, parasite or virus in culture; conditions: Enterobacter aerogenes (WT); for MIC90: 199 isolates
[6] = tested on: Enterobacter aerogenes (AmpC); assay: microbe, parasite or virus in culture; conditions: Enterobacter aerogenes (AmpC); for MIC90: 51 isolates
[7] = tested on: Enterobacter cloacae (WT); assay: microbe, parasite or virus in culture; conditions: for MIC90: 202 isolates
[8] = tested on: Enterobacter cloacae (AmpC); assay: microbe, parasite or virus in culture; conditions: Enterobacter cloacae (AmpC); for MIC90: 50 isolates
[9] = tested on: Citrobacter freundii (AmpC); assay: microbe, parasite or virus in culture; conditions: Citrobacter freundii (AmpC); for MIC90: 60 isolates
[10] = tested on: Morganella morganii (AmpC); assay: microbe, parasite or virus in culture; conditions: Morganella morganii (AmpC); for MIC90: 18 isolates
Proteus mirabilis (WT) = assay: microbe, parasite or virus in culture; conditions: Proteus mirabilis (WT); for MIC90: 235 isolates
Proteus vulgaris (WT) = assay: microbe, parasite or virus in culture; conditions: Proteus vulgaris (WT); for MIC90: 41 isolates
Providencia spp.(all) = assay: microbe, parasite or virus in culture; conditions: Providencia spp.(all); for MIC90: 68 isolates
S. marcescens (AmpC) = assay: microbe, parasite or virus in culture; conditions: S. marcescens (AmpC); for MIC90: 26 isolates

Compound: NC[C@H]1O[C@H](O[C@H]2[C@H](O)[C@@H](O[C@H]3O[C@H](CO)[C@@H](O)[C@H](N)[C@H]3O)[C@H](N)C[C@@H]2N)[C@H](N)C[C@@H]1O [Tobramycin]
- Frequency of Resistance (E. coli ATCC 25922; 4 X MIC): 1 × 10^−5
- Frequency of Resistance (E. coli ATCC 25922; 10 X MIC): 4 × 10^−6
- Frequency of Resistance (K. pneumoniae ATCC 13883; 4 X MIC): 1 × 10^−6
- Frequency of Resistance (K. pneumoniae ATCC 13883; 10 X MIC): 5 × 10^−8
- Frequency of Resistance (P. aeruginosa ATCC 27853; 4 X MIC): 1 × 10^−6
- Frequency of Resistance (P. aeruginosa ATCC 27853; 10 X MIC): 9 × 10^−8
- MIC ([1]; ATCC25922, E wt, read-out: MICs): 1 µg/mL (≈ 2.14 µM)
- MIC ([1]; ATCC25922, read-out: MICs, mutant E 101): 1 µg/mL (≈ 2.14 µM)
- MIC ([1]; ATCC25922, read-out: MICs, mutant E 102): 2 µg/mL (≈ 4.28 µM)
- MIC ([1]; ATCC25922, read-out: MICs, mutant E 107): 1 µg/mL (≈ 2.14 µM)
- MIC ([2]; ATCC13883, K wt., read-out: MICs): 0.5 µg/mL (≈ 1.07 µM)
- MIC ([2]; ATCC13883, read-out: MICs, mutant K 104): 0.5 µg/mL (≈ 1.07 µM)
- MIC ([2]; ATCC13883, read-out: MICs, mutant K 105): 0.5 µg/mL (≈ 1.07 µM)
- MIC ([2]; ATCC13883, read-out: MICs, mutant K 107): 0.5 µg/mL (≈ 1.07 µM)
- MIC ([2]; ATCC13883, read-out: MICs, mutant K 108): 0.5 µg/mL (≈ 1.07 µM)
- MIC ([2]; ATCC13883, read-out: MICs, mutant K 110): 0.5 µg/mL (≈ 1.07 µM)
- MIC ([3]; ATCC27853, P wt., read-out: MICs): 0.5 µg/mL (≈ 1.07 µM)
- MIC ([3]; ATCC27853, read-out: MICs, mutant P 101): 0.5 µg/mL (≈ 1.07 µM)
- MIC ([3]; ATCC27853, read-out: MICs, mutant P106): 0.5 µg/mL (≈ 1.07 µM)
- MIC ([3]; ATCC27853, read-out: MICs, mutant P108): 0.5 µg/mL (≈ 1.07 µM)
- cross-resistance of GSK2251052 resistant mutants [4]: did not have any significant difference in MIC values than wild-type

Compound: Gentamicin
- MIC90 (Enterobacteriaceae): 16 µg/mL
- MIC90 (E. coli (WT)): > 16 µg/mL
- MIC90 (E. coli (ESBL)): > 16 µg/mL
- MIC90 (Klebsiella spp. (WT)): 1 µg/mL
- MIC90 (Klebsiella spp. (ESBL)): > 16 µg/mL
- MIC90 (Klebsiella spp. (KPC)): 16 µg/mL
- MIC90 [5]: 1 µg/mL
- MIC90 [6]: 4 µg/mL
- MIC90 [7]: 1 µg/mL
- MIC90 [8]: > 16 µg/mL
- MIC90 [9]: > 16 µg/mL
- MIC90 [10]: > 16 µg/mL
- MIC90 (Proteus mirabilis (WT)): 4 µg/mL
- MIC90 (Proteus vulgaris (WT)): 2 µg/mL
- MIC90 (Providencia spp.(all)): > 16 µg/mL
- MIC90 (S. marcescens (AmpC)): > 16 µg/mL
- MICs ([1]; E wt): 2 µg/mL
- MICs ([1]; mutant E 101): 1 µg/mL
- MICs ([1]; mutant E 102): 1 µg/mL
- MICs ([1]; mutant E 107): 1 µg/mL
- MICs ([2]; K wt.): 1 µg/mL
- MICs ([2]; mutant K 104): 1 µg/mL
- MICs ([2]; mutant K 105): 1 µg/mL
- MICs ([2]; mutant K 107): 1 µg/mL
- MICs ([2]; mutant K 108): 0.5 µg/mL
- MICs ([2]; mutant K 110): 1 µg/mL
- MICs ([3]; P wt.): 8 µg/mL
- MICs ([3]; mutant P 101): 4 µg/mL
- MICs ([3]; mutant P106): 4 µg/mL
- MICs ([3]; mutant P108): 4 µg/mL
- cross-resistance of GSK2251052 resistant mutants [4]: did not have any significant difference in MIC values than wild-type

Compound: Polymixin B
- MIC90 (Enterobacteriaceae): > 8 µg/mL
- susceptibility category of MIC90 (Enterobacteriaceae; polymixinB criteria): *** (resistant ≧8 μg/mL)
- MIC90 (E. coli (WT)): 1 µg/mL
- susceptibility category of MIC90 (E. coli (WT); polymixinB criteria): * (susceptible ≦2 μg/mL)
- MIC90 (E. coli (ESBL)): 2 µg/mL
- susceptibility category of MIC90 (E. coli (ESBL); polymixinB criteria): * (susceptible ≦2 μg/mL)
- MIC90 (Klebsiella spp. (WT)): 1 µg/mL
- susceptibility category of MIC90 (Klebsiella spp. (WT); polymixinB criteria): * (susceptible ≦2 μg/mL)
- MIC90 (Klebsiella spp. (ESBL)): 2 µg/mL
- susceptibility category of MIC90 (Klebsiella spp. (ESBL); polymixinB criteria): * (susceptible ≦2 μg/mL)
- MIC90 (Klebsiella spp. (KPC)): > 8 µg/mL
- susceptibility category of MIC90 (Klebsiella spp. (KPC); polymixinB criteria): *** (resistant ≧8 μg/mL)
- MIC90 [5]: 4 µg/mL
- susceptibility category of MIC90 ([5]; polymixinB criteria): ** (intermediate 4 μg/mL)
- MIC90 [6]: 2 µg/mL
- susceptibility category of MIC90 ([6]; polymixinB criteria): * (susceptible ≦2 μg/mL)
- MIC90 [7]: > 8 µg/mL
- susceptibility category of MIC90 ([7]; polymixinB criteria): *** (resistant ≧8 μg/mL)
- MIC90 [8]: 4 µg/mL
- susceptibility category of MIC90 ([8]; polymixinB criteria): ** (intermediate 4 μg/mL)
- MIC90 [9]: 1 µg/mL
- susceptibility category of MIC90 ([9]; polymixinB criteria): * (susceptible ≦2 μg/mL)
- MIC90 [10]: > 8 µg/mL
- susceptibility category of MIC90 ([10]; polymixinB criteria): *** (resistant ≧8 μg/mL)
- MIC90 (Proteus mirabilis (WT)): > 8 µg/mL
- susceptibility category of MIC90 (Proteus mirabilis (WT); polymixinB criteria): *** (resistant ≧8 μg/mL)
- MIC90 (Proteus vulgaris (WT)): > 8 µg/mL
- susceptibility category of MIC90 (Proteus vulgaris (WT); polymixinB criteria): *** (resistant ≧8 μg/mL)
- MIC90 (Providencia spp.(all)): 8 µg/mL
- susceptibility category of MIC90 (Providencia spp.(all); polymixinB criteria): *** (resistant ≧8 μg/mL)
- MIC90 (S. marcescens (AmpC)): > 8 µg/mL
- susceptibility category of MIC90 (S. marcescens (AmpC); polymixinB criteria): *** (resistant ≧8 μg/mL)
- MICs ([1]; E wt): 4 µg/mL
- MICs ([1]; mutant E 101): 4 µg/mL
- MICs ([1]; mutant E 102): 4 µg/mL
- MICs ([1]; mutant E 107): 4 µg/mL
- MICs ([2]; K wt.): 4 µg/mL
- MICs ([2]; mutant K 104): 8 µg/mL
- MICs ([2]; mutant K 105): 4 µg/mL
- MICs ([2]; mutant K 107): 2 µg/mL
- MICs ([2]; mutant K 108): 4 µg/mL
- MICs ([2]; mutant K 110): 4 µg/mL
- MICs ([3]; P wt.): 4 µg/mL
- MICs ([3]; mutant P 101): 4 µg/mL
- MICs ([3]; mutant P106): 2 µg/mL
- MICs ([3]; mutant P108): 4 µg/mL
- cross-resistance of GSK2251052 resistant mutants [4]: did not have any significant difference in MIC values than wild-type
